In patent publication EP4653437A2 (Innovo Therapeutics Inc., priority 2023, dated 2024):
Read-outs that look alike come from different tables or passages of the source.

Columns and labels:
A549 cells = test: Measurement of PGE2-increasing activity in A549 cells (IL-1β stimulated, PGE2 quantified in supernatant); type: cell-based; conditions: Homo sapiens, read-out: Increased PGE2 production in A549 cells
Method: A549 cells were prepared at a cell number of 1 x 10^5/mL in F12K medium containing 10% FBS (Fetal Bovine Serum), and 2 x 10^4/200 µL was added to each well of a 96-well cell culture plate, and then cultured in an incubator with 5% CO2 at 37 °C for 24 hours. After the culture was complete and all F12K medium was removed, all wells were washed once with 100 µL of PBS, and treated with 160 µL of serum-free F12K medium. Then, 20 µL of IL-1β diluted 10-fold to a concentration of 1 ng/mL in serum-free F12K medium was treated to wells to be treated with IL-1β, and 20 µL of serum-free F12K medium was treated to wells not treated with IL-1β. For the wells to be treated with the compound, 20 µL of the compound dissolved in 100% DMSO was diluted to a concentration 10 times of the desired compound concentration in serum-free F12K medium so that the final DMSO concentration treated to the cells was 0.1%, and for the wells not to be treated with the compound, 20 µL of DMSO diluted in serum-free F12K medium so that the final DMSO concentration treated to the cells was 0.1% was treated. In order to confirm the increase or decrease in the secretion amount of PGE2 in the supernatant collected after culturing for 24 hours in an incubator with 5% CO2 at 37 °C, PGE2 was quantified using the Prostaglandin E2 Parameter (SKGE004B).

human 15-PGDH = target: T1, human 15-PGDH (Homo sapiens, UniProt P15428); test: Evaluation of 15-PGDH inhibitory activity (fluorescence enzyme assay, NAD+/PGE2); type: biochemical; conditions: human 15-PGDH enzyme, fluorescence Vmax
T1 construct: purchased R&D System 5660-DH
T1 sequence (P15428 1-266): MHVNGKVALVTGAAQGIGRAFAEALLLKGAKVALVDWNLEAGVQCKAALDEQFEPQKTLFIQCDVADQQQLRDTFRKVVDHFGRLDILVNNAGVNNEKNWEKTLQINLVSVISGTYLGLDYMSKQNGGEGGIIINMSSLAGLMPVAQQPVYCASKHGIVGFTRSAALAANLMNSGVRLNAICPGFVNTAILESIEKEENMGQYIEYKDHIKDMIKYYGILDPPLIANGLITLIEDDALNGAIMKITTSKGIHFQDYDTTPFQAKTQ
Method: 15-PGDH inhibition activity of Example compounds was measured as follows. 6.7 ng of human 15-PGDH (R&D System# 5660-DH) enzyme (10 µL) was added to a black 96 well plate, 60 µL of buffer (50 mM Tris-HCl, pH 7.5, 0.01% Tween 20) was added, and 10 µL of 200 µM β-Nicotinamide adenine dinucleotide sodium salt (Sigma, Cat# N0632-5G) was added. 10 µL of (10x) compound solution in DMSO was added and reacted for 10 minutes at room temperature.

[1] = 24 h, concentration of 1 µM of each compound, IL-1β treated A549 cells

CN1CCC(C(=O)Nc2ccc(-c3cccc4c(C(=O)N5CCCCC5)cnn34)cc2)CC1 [Example 99, 1-methyl-N-(4-(3-(piperidine-1-carbonyl)pyrazolo[1,5-a]pyridin-7-yl)phenyl)piperidine-4-carboxamide]
fold induction at 1 µM (A549 cells; [1]): < 1.5 | IC50 (human 15-PGDH): ≤ 100 nM

O=C(c1cnn2c(-c3cc(F)cc(Cl)c3)cccc12)N1CCCCC1 [Example 279, (7-(3-chloro-5-fluorophenyl)pyrazolo[1,5-a]pyridin-3-yl)(piperidin-1-yl)methanone]
fold induction at 1 µM (A549 cells; [1]): < 1.5 | IC50 (human 15-PGDH): ≤ 100 nM

N#Cc1ccc(-c2cccc3c(C(=O)N4CCCCC4)cnn23)cc1F [Example 22, 2-fluoro-4-(3-(piperidine-1-carbonyl)pyrazolo[1,5-a]pyridin-7-yl)benzonitrile]
fold induction at 1 µM (A549 cells; [1]): > 1.5 | IC50 (human 15-PGDH): ≤ 100 nM

N#Cc1ccc(-c2cccc3c(C(=O)N4CCC(F)CC4)cnn23)cc1 [Example 156, 4-(3-(4-fluoropiperidine-1-carbonyl)pyrazolo[1,5-a]pyridin-7-yl)benzonitrile]
fold induction at 1 µM (A549 cells; [1]): > 1.5 | IC50 (human 15-PGDH): ≤ 100 nM

CS(=O)(=O)NC(=O)c1cncc(-c2cccc3c(C(=O)N4CCCCC4)cnn23)c1 [Example 201, N-methylsulfonyl-5-[3-(piperidine-1-carbonyl)pyrazolo[1,5-a]pyridin-7-yl]pyridine-3-carboxamide]
fold induction at 1 µM (A549 cells; [1]): > 1.5 | IC50 (human 15-PGDH): ≤ 100 nM

O=C1NCc2ccc(-c3cccc4c(C(=O)N5CCC6(CCC6)C5)cnn34)cc21 [Example 391, 6-(3-(6-azaspiro[3.4]octane-6-carbonyl)pyrazolo[1,5-a]pyridin-7-yl)isoindolin-1-one]
fold induction at 1 µM (A549 cells; [1]): > 1.5 | IC50 (human 15-PGDH): ≤ 100 nM

N#CCCNC(=O)c1cccc(-c2cccc3c(C(=O)N4CCCCC4)cnn23)c1 [Example 36, N-(2-cyanoethyl)-3-(3-(piperidine-1-carbonyl)pyrazolo[1,5-a]pyridin-7-yl)benzamide]
fold induction at 1 µM (A549 cells; [1]): > 1.5 | IC50 (human 15-PGDH): ≤ 100 nM

Nc1n[nH]c2cc(-c3cccc4c(C(=O)N5CCCCC5)cnn34)ccc12 [Example 309, [7-(3-amino-1H-indazol-6-yl)pyrazolo[1,5-a]pyridin-3-yl]-(1-piperidyl)methanone]
fold induction at 1 µM (A549 cells; [1]): > 1.5 | IC50 (human 15-PGDH): ≤ 100 nM

O=C1NCCc2ncc(-c3cccc4c(C(=O)N5CCCCC5)cnn34)cc21 [Example 195, 3-(3-(piperidine-1-carbonyl)pyrazolo[1,5-a]pyridin-7-yl)-7,8-dihydro-1,6-naphthyridin-5(6H)-one]
fold induction at 1 µM (A549 cells; [1]): > 1.5 | IC50 (human 15-PGDH): ≤ 100 nM

O=C(c1cnn2c(-c3cnc(Cl)nc3)cccc12)N1CCCCC1 [Example 267, (7-(2-chloropyrimidin-5-yl)pyrazolo[1,5-a]pyridin-3-yl)(piperidin-1-yl)methanone]
fold induction at 1 µM (A549 cells; [1]): > 1.5 | IC50 (human 15-PGDH): ≤ 100 nM

O=C(Cc1cccnc1)Nc1ccc(-c2cccc3c(C(=O)N4CCCCC4)cnn23)cc1 [Example 274, N-(4-(3-(piperidine-1-carbonyl)pyrazolo[1,5-a]pyridin-7-yl)phenyl)-2-(pyridin-3-yl)acetamide]
fold induction at 1 µM (A549 cells; [1]): > 1.5 | IC50 (human 15-PGDH): ≤ 100 nM

O=C(c1cnn2c(-c3ccc(N4CCOC4=O)nc3)cccc12)N1CCCC(C(F)(F)F)C1 (centres unmarked) [Example 339, 3-(5-(3-(3-(trifluoromethyl)piperidine-1-carbonyl)pyrazolo[1,5-a]pyridin-7-yl)pyridin-2-yl)oxazolidin-2-one]
fold induction at 1 µM (A549 cells; [1]): > 1.5 | IC50 (human 15-PGDH): ≤ 100 nM

O=C(c1cnn2c(-c3ccc(N4CCC5(CCC5)CC4)nc3)cccc12)N1CCCCC1 [Example 222, (7-(6-(7-azaspiro[3.5]nonan-7-yl)pyridin-3-yl)pyrazolo[1,5-a]pyridin-3-yl)(piperidin-1-yl)methanone]
fold induction at 1 µM (A549 cells; [1]): > 1.5 | IC50 (human 15-PGDH): ≤ 100 nM

Cc1noc(C)c1-c1cc(-c2cccc3c(C(=O)N4CCCCC4)cnn23)cc(N2CCOCC2)n1 [Example 371, (7-(2-(3,5-dimethylisoxazol-4-yl)-6-morpholinopyridin-4-yl)pyrazolo[1,5-a]pyridin-3-yl)(piperidin-1-yl)methanone]
fold induction at 1 µM (A549 cells; [1]): > 1.5 | IC50 (human 15-PGDH): ≤ 100 nM

O=C(c1cnn2c(-c3ccccc3)cccc12)N1C2CCC1CC2 [Example 229, (7-azabicyclo[2.2.1]heptan-7-yl)(7-phenylpyrazolo[1,5-a]pyridin-3-yl)methanone]
fold induction at 1 µM (A549 cells; A549, 24 h): > 1.5 | IC50 (human 15-PGDH): ≤ 100 nM

O=C(c1cnn2c(-c3ccc(Cl)cc3)cccc12)N1CCCCC1 [Example 12, (7-(4-chlorophenyl)pyrazolo[1,5-a]pyridin-3-yl)(piperidin-1-yl)methanone]
fold induction at 1 µM (A549 cells; [1]): > 1.5 | IC50 (human 15-PGDH): ≤ 100 nM

Cn1nccc1-c1cnc(F)c(-c2cccc3c(C(=O)N4CCCCC4)cnn23)c1 [Example 325, (7-(2-fluoro-5-(1-methyl-1H-pyrazol-5-yl)pyridin-3-yl)pyrazolo[1,5-a]pyridin-3-yl)(piperidin-1-yl)methanone]
fold induction at 1 µM (A549 cells; [1]): > 1.5 | IC50 (human 15-PGDH): ≤ 100 nM

COCCC(=O)Nc1ccc(-c2cccc3c(C(=O)N4CCCCC4)cnn23)cn1 [Example 103, 3-methoxy-N-(5-(3-(piperidine-1-carbonyl)pyrazolo[1,5-a]pyridin-7-yl)pyridin-2-yl)propanamide]
fold induction at 1 µM (A549 cells; [1]): < 1.5 | IC50 (human 15-PGDH): ≤ 100 nM

O=C(c1cnn2c(-c3ccc(N4CCC5(CCC5)C4)nc3)cccc12)N1CCCCC1 [Example 223, (7-(6-(6-azaspiro[3.4]octan-6-yl)pyridin-3-yl)pyrazolo[1,5-a]pyridin-3-yl)(piperidin-1-yl)methanone]
fold induction at 1 µM (A549 cells; [1]): > 1.5 | IC50 (human 15-PGDH): ≤ 100 nM

CNC(=O)c1cccc(-c2cccc3c(C(=O)N4CCCCC4)cnn23)c1 [Example 27, N-methyl-3-(3-(piperidine-1-carbonyl)pyrazolo[1,5-a]pyridin-7-yl)benzamide]
fold induction at 1 µM (A549 cells; [1]): < 1.5 | IC50 (human 15-PGDH): ≤ 100 nM

Nc1ccc(-c2cccc3c(C(=O)N4CCCCC4)cnn23)cn1 [Example 17, (7-(6-aminopyridin-3-yl)pyrazolo[1,5-a]pyridin-3-yl)(piperidin-1-yl)methanone]
fold induction at 1 µM (A549 cells; [1]): < 1.5 | IC50 (human 15-PGDH): ≤ 100 nM

CN1CCC(NC(=O)c2cccc(-c3cccc4c(C(=O)N5CCCCC5)cnn34)c2)CC1 [Example 33, N-(1-methylpiperidin-4-yl)-3-(3-(piperidine-1-carbonyl)pyrazolo[1,5-a]pyridin-7-yl)benzamide]
fold induction at 1 µM (A549 cells; [1]): > 1.5 | IC50 (human 15-PGDH): ≤ 100 nM

O=C(c1cccc(-c2cccc3c(C(=O)N4CCCCC4)cnn23)c1)N1CCC1 [Example 29, azetidin-1-yl(3-(3-(piperidine-1-carbonyl)pyrazolo[1,5-a]pyridin-7-yl)phenyl)methanone]
fold induction at 1 µM (A549 cells; [1]): > 1.5 | IC50 (human 15-PGDH): ≤ 100 nM

Cn1nc2cc(-c3cccc4c(C(=O)N5CCCCC5)cnn34)ccn2c1=O [Example 252, 2-methyl-7-(3-(piperidine-1-carbonyl)pyrazolo[1,5-a]pyridin-7-yl)-[1,2,4]triazolo[4,3-a]pyridin-3(2H)-one]
fold induction at 1 µM (A549 cells; [1]): > 1.5 | IC50 (human 15-PGDH): ≤ 100 nM

O=C(O)c1ccc(-c2cccc3c(C(=O)N4CCCCC4)cnn23)cc1 [Example 10, 4-(3-(piperidine-1-carbonyl)pyrazolo[1,5-a]pyridin-7-yl)benzoic acid]
fold induction at 1 µM (A549 cells; [1]): < 1.5 | IC50 (human 15-PGDH): ≤ 100 nM

CN1CCc2ncc(-c3cccc4c(C(=O)N5CCCCC5)cnn34)cc2C1=O [Example 199, 6-methyl-3-(3-(piperidine-1-carbonyl)pyrazolo[1,5-a]pyridin-7-yl)-7,8-dihydro-1,6-naphthyridin-5(6H)-one]
fold induction at 1 µM (A549 cells; [1]): > 1.5 | IC50 (human 15-PGDH): ≤ 100 nM

CN1CCN(C(=O)c2ccc(-c3cccc4c(C(=O)N5CCCCC5)cnn34)cc2)CC1 [Example 67, (4-methylpiperazin-1-yl)(4-(3-(piperidine-1-carbonyl)pyrazolo[1,5-a]pyridin-7-yl)phenyl)methanone]
fold induction at 1 µM (A549 cells; [1]): > 1.5 | IC50 (human 15-PGDH): ≤ 100 nM

O=C1NCc2ncc(-c3cccc4c(C(=O)N5CCCCC5)cnn34)cc21 [Example 232, 3-(3-(piperidine-1-carbonyl)pyrazolo[1,5-a]pyridin-7-yl)-6,7-dihydro-5H-pyrrolo[3,4-b]pyridin-5-one]
fold induction at 1 µM (A549 cells; [1]): > 1.5 | IC50 (human 15-PGDH): ≤ 100 nM
